Patent US20170166555A1, “FUNCTIONALISED AND SUBSTITUTED INDOLES AS ANTI-CANCER AGENTS” (Novogen Limited, priority 2013, published 2017)
Like-named read-outs stand apart in the source and are kept apart here.

Tests used:
Format in all cases: cell-based
[1] = test system: melanoma (SK-Mel-28) cells; test: Cell viability assay (MTT, 48 hr); details: Homo sapiens, 48 hr treatment, read-out: IC50 (μM) SKMEL28
Method: (§1) Cell viability assays were also conducted to assess the anti-proliferative effects of the anti-tropomyosin compounds 4001-4015. Briefly, cells (1×10^3/well) were plated (96-well) and treated (48 hr) with anti-tropomyosin drug and viability measured using 3-(4,5-dimethylthiazol-2-yl)-2,5-diphenylterazolium bromide MTT. Cell viability was normalized to control (vehicle alone) and dose-response curves, and half maximal effective concentration (EC50) values were determined using Graph Pad Prism 5 (nonlinear regression sigmoidal dose-response variable slope).

[2] = test system: neuroblastoma (SH-EP) cells; test: Cell viability assay (MTT, 48 hr); details: 48 hr treatment, read-out: IC50 (μM) SHEP
Method: as §1

[3] = test system: SK-N-SH neuroblastoma cells; test: Anti-proliferative assay, cell-titre luminescent reagent, 72 h (GVK-BIO); details: Homo sapiens
In short: (§2)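 Seed at predetermined density, 24 h attach (37 °C, 5% CO2). Dose 4-point (30–0.03 μM, 10-fold) → IC50 by linear regression on semi-log plot; or 6-point (30–0.1 μM) → EC50 by sigmoidal variable-slope fit. Reagent 30 min, luminescence vs untreated control.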

[4] = test system: SK-Mel-28 melanoma cells; test: as above; details: Homo sapiens
In short: as §2

[5] = test system: MDA-MB-231 triple negative breast cancer cells; test: as above; details: Homo sapiens
In short: as §2

[6] = test system: PC3 prostate cancer cells; test: as above
In short: as §2

[7] = test system: DU145 prostate cancer cells; test: as above; details: Homo sapiens
In short: as §2

[8] = test system: CaCo2 colorectal cancer cells; test: as above; details: Homo sapiens
In short: as §2

[9] = test system: A549 non-small cell lung carcinoma cells; test: as above; details: Homo sapiens, read-out: IC50/μM Lung (NSLC) A549
In short: as §2

[10] = SK-N-SH, 30, 10, 3, 1, 0.3 and 0.1 μM, nonlinear regression (Table 5)
[11] = SK-MEL-28, 72 h, 30, 10, 3, 1, 0.3 and 0.1 μM, nonlinear regression (Table 5)
[12] = MDA-MB-231, 72 h, 30, 10, 3, 1, 0.3 and 0.1 μM, nonlinear regression (Table 5)
[13] = 30, 10, 3, 1, 0.3 and 0.1 μM, nonlinear regression (Table 5)
[14] = DU-145, 72 h, 30, 10, 3, 1, 0.3 and 0.1 μM, nonlinear regression (Table 5)
[15] = Caco-2, 72 h, 30, 10, 3, 1, 0.3 and 0.1 μM, nonlinear regression (Table 5)
[16] = A549, 72 h, 30, 10, 3, 1, 0.3 and 0.1 μM, nonlinear regression (Table 5)
[17] = SK-N-SH, 30, 3, 0.3 and 0.03 μM, linear regression (Tables 2-4)
[18] = SK-MEL-28, 72 h, 30, 3, 0.3 and 0.03 μM, linear regression (Tables 2-4)
[19] = MDA-MB-231, 72 h, 30, 3, 0.3 and 0.03 μM, linear regression (Tables 2-4)
[20] = 30, 3, 0.3 and 0.03 μM, linear regression (Tables 2-4)
[21] = DU-145, 72 h, 30, 3, 0.3 and 0.03 μM, linear regression (Tables 2-4)
[22] = Caco-2, 72 h, 30, 3, 0.3 and 0.03 μM, linear regression (Tables 2-4)
[23] = A549, 72 h, 30, 3, 0.3 and 0.03 μM, linear regression (Tables 2-4)

Row | SMILES | IC50 [1] | IC50 [2] | IC50 [3, 10] | IC50 [4, 11] | IC50 [5, 12] | IC50 [6, 13] | IC50 [7, 14] | IC50 [8, 15] | IC50 [9, 16] | IC50 [3, 17] | IC50 [4, 18] | IC50 [5, 19] | IC50 [6, 20] | IC50 [7, 21] | IC50 [8, 22] | IC50 [9, 23]
1 | CN(C)CCCn1ccc2cc(-c3cnn(Cc4ccccc4)c3)ccc21 [Compound 4003, 3-(5-(1-benzyl-1H-pyrazol-4-yl)-1H-indol-1-yl)-N,N-dimethylpropan-1-amine] | 25.9 µM |  |  |  |  |  |  |  |  |  |  |  |  |  |  | 
2 | CC(c1ccccc1)n1cc(-c2ccc3c(ccn3CCCN(C)C)c2)cn1 (centres unmarked) [Compound 4004, N,N-dimethyl-3-(5-(1-(1-phenylethyl)-1H-pyrazol-4-yl)-1H-indol-1-yl)propan-1-amine] | 9.8 µM | 6.7 µM |  |  |  |  |  |  |  |  |  |  |  |  |  | 
3 | CN(C)CCCn1ccc2cc(-c3cnn(CC4CCN(C)CC4)c3)ccc21 [Compound 4005, N,N-dimethyl-3-(5-(1-((1-methylpiperidin-4-yl)methyl)-1H-pyrazol-4-yl)-1H-indol-1-yl)propan-1-amine] | 53.8 µM | 5.4 µM |  |  |  |  |  |  |  |  |  |  |  |  |  | 
4 | CN(C)CCCn1ccc2cc(-c3cnn(CC4CCOCC4)c3)ccc21 [Compound 4006, N,N-dimethyl-3-(5-(1-((tetrahydro-2H-pyran-4-yl)methyl)-1H-pyrazol-4-yl)-1H-indol-1-yl)propan-1-amine] |  | 107 µM |  |  |  |  |  |  |  |  |  |  |  |  |  | 
5 | Cc1c(C)n(CCCN2CCN(C)CC2)c2ccc(CN3CCN(CCc4ccc(O)cc4)CC3)cc12 [Compound 4112, 4-(2-(4-((2,3-dimethyl-1-(3-(4-methylpiperazin-1-yl)propyl)-1H-indol-5-yl)methyl)piperazin-1-yl)ethyl)phenol] |  |  | 7 µM | 13 µM | 11.8 µM | 8.4 µM | 8.3 µM | 17.5 µM | 5.9 µM |  |  |  |  |  |  | 
6 | COc1cccc(CCN2CCN(Cc3ccc4c(c3)c(C)c(C)n4CCCN3CCN(C)CC3)CC2)c1 [Compound 4115, 5-((4-(3-methoxyphenethyl)piperazin-1-yl)methyl)-2,3-dimethyl-1-(3-(4-methylpiperazin-1-yl)propyl)-1H-indole] |  |  | 4.9 µM | 1.1 µM | 3.4 µM | 9.4 µM | 6.1 µM | 6.2 µM | 8.8 µM |  |  |  |  |  |  | 
7 | Cc1c(C)n(CCCN2CCN(C)CC2)c2ccc(CN3CCN(CCc4cccc(O)c4)CC3)cc12 [Compound 4116, 3-(2-(4-((2,3-dimethyl-1-(3-(4-methylpiperazin-1-yl)propyl)-1H-indol-5-yl)methyl)piperazin-1-yl)ethyl)phenol] |  |  | 4.6 µM | 3.2 µM | 4.1 µM | 13.2 µM | 7.6 µM | 6 µM | 10.1 µM |  |  |  |  |  |  | 
8 | Cc1c(C)n(CCCN2CCN(C)CC2)c2ccc(CN3CCN(CCc4ccccc4)CC3)cc12 [Compound 4117, 2,3-dimethyl-1-(3-(4-methylpiperazin-1-yl)propyl)-5-((4-phenethylpiperazin-1-yl)methyl)-1H-indole] |  |  | 4.6 µM | 2 µM | 3.5 µM | 10.2 µM | 5.6 µM | 8.2 µM | 8.6 µM |  |  |  |  |  |  | 
9 | Cc1c(C)n(CCCN(C)C)c2ccc(C(=O)N3CCN(CCc4ccc(F)cc4)CC3)cc12 [Compound 4118, (1-(3-(dimethylamino)propyl)-2,3-dimethyl-1H-indol-5-yl)(4-(4-fluorophenethyl)piperazin-1-yl)methanone] |  |  |  |  |  |  |  |  |  | 31.9 µM | 18.1 µM | > 30 µM | > 30 µM | > 30 µM | > 30 µM | > 30 µM
10 | Cc1c(C)n(CCCN(C)C)c2ccc(C(=O)N3CCN(CCc4ccc(O)cc4)CC3)cc12 [Compound 4119, (1-(3-(dimethylamino)propyl)-2,3-dimethyl-1H-indol-5-yl)(4-(4-hydroxyphenethyl)piperazin-1-yl)methanone] |  |  | > 30 µM | > 30 µM | > 30 µM | > 30 µM | > 30 µM | > 30 µM | > 30 µM |  |  |  |  |  |  | 
11 | Cc1c(C)n(CCCN2CCN(C)CC2)c2ccc(C(=O)N3CCN(CCc4ccc(F)cc4)CC3)cc12 [Compound 4120, (2,3-dimethyl-1-(3-(4-methylpiperazin-1-yl)propyl)-1H-indol-5-yl)(4-(4-fluorophenethyl)piperazin-1-yl)methanone] |  |  |  |  |  |  |  |  |  | 13.8 µM | 17.7 µM | > 30 µM | > 30 µM | > 30 µM | > 30 µM | 23 µM
12 | COc1ccc(CCN2CCN(C(=O)c3ccc4c(c3)c(C)c(C)n4CCCN3CCN(C)CC3)CC2)cc1 [Compound 4121, (2,3-dimethyl-1-(3-(4-methylpiperazin-1-yl)propyl)-1H-indol-5-yl)(4-(4-methoxyphenethyl)piperazin-1-yl)methanone] |  |  |  |  |  |  |  |  |  | 13.6 µM | 14.7 µM | 13.2 µM | > 30 µM | > 30 µM | > 30 µM | 15.7 µM
13 | Cc1c(C)n(CCCN2CCN(C)CC2)c2ccc(C(=O)N3CCN(CCc4ccc(O)cc4)CC3)cc12 [Compound 4122, (2,3-dimethyl-1-(3-(4-methylpiperazin-1-yl)propyl)-1H-indol-5-yl)(4-(4-hydroxyphenethyl)piperazin-1-yl)methanone] |  |  | > 30 µM | > 30 µM | > 30 µM | > 30 µM | > 30 µM | > 30 µM | > 30 µM |  |  |  |  |  |  | 
14 | Cc1c(C)n(CCCN2CCN(C)CC2)c2ccc(C(=O)N3CCN(CCc4ccc5c(c4)OCO5)CC3)cc12 [Compound 4123, (4-(2-(benzo[d][1,3]dioxol-5-yl)ethyl)piperazin-1-yl)(2,3-dimethyl-1-(3-(4-methylpiperazin-1-yl)propyl)-1H-indol-5-yl)methanone] |  |  |  |  |  |  |  |  |  | 12.3 µM | 16.8 µM | 16.3 µM | > 30 µM | > 30 µM | > 30 µM | 15.6 µM
15 | Cc1c(C)n(CCCN2CCN(C)CC2)c2ccc(C(=O)N3CCN(CCc4cccc(F)c4)CC3)cc12 [Compound 4124, (2,3-dimethyl-1-(3-(4-methyl piperazin-1-yl)propyl)-1H-indol-5-yl)(4-(3-fluorophenethyl)piperazin-1-yl)methanone] |  |  |  |  |  |  |  |  |  | 10.9 µM | 15.9 µM | 13.9 µM | 21.8 µM | > 30 µM | 29.6 µM | 15 µM
16 | COc1cccc(CCN2CCN(C(=O)c3ccc4c(c3)c(C)c(C)n4CCCN3CCN(C)CC3)CC2)c1 [Compound 4125, (2,3-dimethyl-1-(3-(4-methylpiperazin-1-yl)propyl)-1H-indol-5-yl)(4-(3-methoxyphenethyl)piperazin-1-yl)methanone] |  |  |  |  |  |  |  |  |  | 14.9 µM | 25 µM | 33.2 µM | > 30 µM | > 30 µM | > 30 µM | 19.4 µM
17 | Cc1c(C)n(CCCN2CCN(C)CC2)c2ccc(C(=O)N3CCN(CCc4cccc(O)c4)CC3)cc12 [Compound 4126, (2,3-dimethyl-1-(3-(4-methylpiperazin-1-yl)propyl)-1H-indol-5-yl)(4-(3-hydroxyphenethyl)piperazin-1-yl)methanone] |  |  | > 30 µM | > 30 µM | > 30 µM | > 30 µM | > 30 µM | > 30 µM | > 30 µM |  |  |  |  |  |  | 
18 | Cc1c(C)n(CCCN2CCN(C)CC2)c2ccc(C(=O)N3CCN(CCc4ccccc4)CC3)cc12 [Compound 4127, (2,3-dimethyl-1-(3-(4-methylpiperazin-1-yl)propyl)-1H-indol-5-yl)(4-phenethylpiperazin-1-yl)methanone] |  |  |  |  |  |  |  |  |  | 10.5 µM | 14.4 µM | 13.5 µM | 12.9 µM | > 30 µM | 10.7 µM | 13.1 µM
